Assay results reported in the supplement of paper PMC13380429.

Assays:
Conditions in all cases: 72 h
Caco-2 [1] = assay: cell viability relative to DMSO; higher = less toxic
Calu-3 [2] = assay: as above
HepG2 [3] = assay: as above
U2OS [4] = assay: as above
Vero E6 [5] = assay: as above
Caco-2 [6] = assay: relative viability EC50 (midpoint between 100% and the lowest measured viability); higher = less toxic
Calu-3 [7] = assay: as above
HepG2 [8] = assay: as above
U2OS [9] = assay: as above
Vero E6 [10] = assay: as above
Caco-2 [11] = assay: drug sensitivity score (DSS) for viability; higher = more toxic; extreme values may be limits of the assay
Calu-3 [12] = assay: as above
HepG2 [13] = assay: as above
U2OS [14] = assay: as above
Vero E6 [15] = assay: as above

Row | SMILES | cell viability (Caco-2 [1]; 1 nM) | cell viability (Caco-2 [1]; 10 nM) | cell viability (Caco-2 [1]; 100 nM) | cell viability (Caco-2 [1]; 1000 nM) | cell viability (Caco-2 [1]; 10000 nM) | cell viability (Calu-3 [2]; 1 nM) | cell viability (Calu-3 [2]; 10 nM) | cell viability (Calu-3 [2]; 100 nM) | cell viability (Calu-3 [2]; 1000 nM) | cell viability (Calu-3 [2]; 10000 nM) | cell viability (HepG2 [3]; 1 nM) | cell viability (HepG2 [3]; 10 nM) | cell viability (HepG2 [3]; 100 nM) | cell viability (HepG2 [3]; 1000 nM) | cell viability (HepG2 [3]; 10000 nM) | cell viability (U2OS [4]; 1 nM) | cell viability (U2OS [4]; 10 nM) | cell viability (U2OS [4]; 100 nM) | cell viability (U2OS [4]; 1000 nM) | cell viability (U2OS [4]; 10000 nM) | cell viability (Vero E6 [5]; 1 nM) | cell viability (Vero E6 [5]; 10 nM) | cell viability (Vero E6 [5]; 100 nM) | cell viability (Vero E6 [5]; 1000 nM) | cell viability (Vero E6 [5]; 10000 nM) | relative viability EC50 (Caco-2 [6]) | relative viability EC50 (Calu-3 [7]) | relative viability EC50 (HepG2 [8]) | relative viability EC50 (U2OS [9]) | relative viability EC50 (Vero E6 [10]) | drug sensitivity score (Caco-2 [11]) | drug sensitivity score (Calu-3 [12]) | drug sensitivity score (HepG2 [13]) | drug sensitivity score (U2OS [14]) | drug sensitivity score (Vero E6 [15])
1 | Nc1cc(C(F)(F)F)c(-c2nc(N3CCOCC3)nc(N3CCOCC3)n2)cn1 [PI3K-IN-2] | 107% | 106% | 97.7% | 63.3% | 17.1% | 88.3% | 102% | 78.1% | 48% | 21.4% | 124% | 106% | 101% | 59.4% | 25.1% | 103% | 106% | 99% | 89.7% | 24.5% | 106% | 106% | 105% | 70% | 30% | 1.12 µM | 0.376 µM | 0.935 µM | 2.07 µM | 1.12 µM | 9.1 | 12.4 | 9.1 | 5.9 | 7.8
2 | NCCCC[C@H](NC(=O)[C@@H]1CCCN1C(=O)[C@@H]1CSSC[C@H](N)C(=O)N[C@@H](Cc2ccc(O)cc2)C(=O)N[C@@H](Cc2ccccc2)C(=O)N[C@@H](CCC(N)=O)C(=O)N[C@@H](CC(N)=O)C(=O)N1)C(=O)NCC(N)=O [lypressin] | 98.6% | 99.6% | 97.8% | 102% | 101% | 95.6% | 98.1% | 103% | 93.4% | 92.2% | 105% | 97.9% | 97.8% | 100% | 100% | 99.7% | 105% | 97.5% | 98.8% | 101% | 97.4% | 101% | 95.4% | 99.1% | 100% | > 10 µM | > 10 µM | > 10 µM | > 10 µM | > 10 µM | 0 | 0 | 0 | 0 | 0
3 | O=C(NNc1nc2cc(F)ccc2n2cccc12)c1cnccn1 [SC-144] | 93.3% | 101% | 80.4% | 6.6% | 13.8% | 102% | 95.9% | 93.3% | 6% | 3.9% | 96% | 98.3% | 101% | 15.2% | 20.2% | 104% | 99.3% | 91.8% | 40.1% | 15.9% | 97.1% | 100% | 82.7% | 43.6% | 21.9% | 0.17 µM | 0.27 µM | 0.323 µM | 0.513 µM | 0.368 µM | 20 | 18.1 | 15.3 | 12.5 | 12.6
4 | COc1cc2c(cc1OC)[C@@]13CCN4CC5=CCO[C@H]6CC(=O)N2[C@H]1[C@H]6[C@H]5C[C@H]43 [brucine] | 104% | 89.9% | 112% | 106% | 91.7% | 110% | 101% | 91.4% | 98% | 97.1% | 109% | 103% | 90.2% | 83.6% | 96.9% | 96.8% | 101% | 101% | 96.5% | 96.9% | 106% | 92.3% | 95.2% | 99% | 98.9% | > 10 µM | > 10 µM | > 10 µM | > 10 µM | > 10 µM | 0 | 0 | 2.6 | 0 | 0
5 | CN(C)C(=O)N[C@H]1CC[C@H](CCN2CCN(c3cccc(Cl)c3Cl)CC2)CC1 [cariprazine] | 95.7% | 95.2% | 96.5% | 86.6% | 97.2% | 102% | 93% | 100% | 97.9% | 106% | 93% | 91.1% | 93.8% | 100% | 94.7% | 100% | 102% | 98% | 95.9% | 100% | 97.3% | 98.6% | 96.8% | 104% | 95.3% | > 10 µM | > 10 µM | > 10 µM | > 10 µM | > 10 µM | 0 | 0 | 0 | 0 | 0
6 | C[C@]12C=CC(=O)C=C1CC[C@@H]1[C@@H]2C(=O)C[C@@]2(C)[C@H]1CC[C@]2(O)C(=O)CO [prednisone] | 95.8% | 99.6% | 100% | 89.7% | 85.3% | 97.8% | 98.1% | 98% | 106% | 103% | 100% | 105% | 98% | 101% | 90.6% | 98.9% | 99.2% | 95.7% | 99.6% | 95% | 100% | 99.3% | 104% | 97.4% | 94.6% | > 10 µM | > 10 µM | > 10 µM | > 10 µM | > 10 µM | 0.9 | 0 | 0 | 0 | 0
7 | COCC1(CO)C(=O)C2CCN1CC2 (stereo not given) [APR-246] | 99.5% | 94.7% | 95.1% | 94.2% | 94.6% | 96.7% | 87.5% | 111% | 90.4% | 94.5% | 93% | 99.7% | 96.6% | 112% | 91.8% | 100% | 94.9% | 99.8% | 96.3% | 99.5% | 97.1% | 99.3% | 96.6% | 97.8% | 93.1% | > 10 µM | > 10 µM | > 10 µM | > 10 µM | > 10 µM | 0 | 0 | 0 | 0 | 0
8 | CCN(Cc1ccncc1)C(=O)C(CO)c1ccccc1 (stereo not given) [tropicamide] | 86.2% | 96.9% | 97.2% | 89.4% | 101% | 98.6% | 90.5% | 101% | 95.9% | 103% | 106% | 98% | 107% | 91.9% | 97.8% | 91.7% | 98.8% | 95.4% | 99% | 103% | 94.2% | 88.8% | 91.8% | 84.8% | 102% | > 10 µM | > 10 µM | > 10 µM | > 10 µM | > 10 µM | 0 | 0 | 0 | 0 | 0
9 | C=CCOc1ccccc1OCC(O)CNC(C)C (stereo not given) [oxprenolol] | 102% | 91.5% | 98% | 91.2% | 97.9% | 111% | 90.8% | 108% | 93.2% | 103% | 97.4% | 97.8% | 93.3% | 113% | 107% | 106% | 97.7% | 99.8% | 101% | 102% | 98.6% | 104% | 102% | 106% | 98.6% | > 10 µM | > 10 µM | > 10 µM | > 10 µM | > 10 µM | 0 | 0 | 0 | 0 | 0
10 | c1ccc2nc(N3CCNCC3)ccc2c1 [quipazine] | 99% | 98.9% | 93.1% | 95.3% | 106% | 102% | 101% | 109% | 96.1% | 99.3% | 93.7% | 97.8% | 99.7% | 93.5% | 101% | 100% | 97.4% | 102% | 100% | 100% | 90.8% | 96.3% | 92.1% | 96.7% | 101% | > 10 µM | > 10 µM | > 10 µM | > 10 µM | > 10 µM | 0 | 0 | 0 | 0 | 0
11 | COC(=O)N[C@H](C(=O)N1CCC[C@H]1C(=O)Nc1ccc([C@@H]2CC[C@@H](c3ccc(NC(=O)[C@@H]4CCCN4C(=O)[C@@H](NC(=O)OC)C(C)C)cc3)N2c2ccc(C(C)(C)C)cc2)cc1)C(C)C [ombitasvir] | 96% | 104% | 95.1% | 96.8% | 100% | 105% | 100% | 108% | 98.1% | 91.7% | 99.4% | 100% | 92.1% | 92.3% | 108% | 94.3% | 95.1% | 100% | 98% | 86.5% | 99.8% | 96.2% | 94.2% | 94.9% | 102% | > 10 µM | > 10 µM | > 10 µM | > 10 µM | > 10 µM | 0 | 0 | 0 | 0.3 | 0
12 | CCCOC(=O)c1ccc(O)cc1 [propyl 4-hydroxybenzoate] | 92.2% | 100% | 102% | 90.2% | 109% | 92.1% | 95.4% | 88.7% | 92.1% | 102% | 108% | 102% | 107% | 89% | 102% | 102% | 97.1% | 100% | 98.9% | 102% | 108% | 95.9% | 102% | 95.3% | 100% | > 10 µM | > 10 µM | > 10 µM | > 10 µM | > 10 µM | 0 | 0 | 0 | 0 | 0
